Key:
[1] = test system: Monographella nivalis (Microdochium nivale); experiment: Monographella nivalis (Microdochium nivale) / liquid culture (foot rot cereals); type: cell-based; settings: compared to untreated control
Procedure: Monographella nivalis (Microdochium nivale)/Liquid Culture (Foot Rot Cereals)
(§1) Conidia of the fungus from cryogenic storage are directly mixed into nutrient broth (PDB potato dextrose broth). After placing a (DMSO) solution of test compound into a microtiter plate (96-well format), the nutrient broth containing the fungal spores is added. The test plates are incubated at 24° C. and the inhibition of growth is determined photometrically 4-5 days after application.

[2] = test system: Sclerotinia sclerotiorum; experiment: Sclerotinia sclerotiorum / liquid culture (cottony rot); type: cell-based; settings: compared to untreated control
Procedure: Sclerotinia sclerotiorum/Liquid Culture (Cottony Rot)
as §1, with “Mycelia fragments of a newly grown liquid culture” for “Conidia”, “fungus” for “fungus from cryogenic storage”, “(Vogels” for “(PDB potato dextrose”, “format)” for “format),”, “material” for “spores”, “3-4” for “4-5”

[3] = test system: Gibberella zeae (Fusarium graminearum); experiment: whole plant or invertebrate; type: in vivo; settings: in Triticum aestivum, read-out: control of Gibberella zeae
[4] = test system: Magnaporthe grisea (Pyricularia oryzae); experiment: microbe, parasite or virus in culture; type: cell-based; settings: read-out: control of Magnaporthe grisea
[5] = test system: Botryotinia fuckeliana (Botrytis cinerea); experiment: Botryotinia fuckeliana (Botrytis cinerea) / liquid culture (gray mould); type: cell-based; settings: compared to untreated control
Procedure: Botryotinia fuckeliana (Botrytis cinerea)/Liquid Culture (Gray Mould)
as §1, with “(Vogels” for “(PDB potato dextrose”, “3-4” for “4-5”

[6] = test system: Glomerella lagenarium (Colletotrichum lagenarium); experiment: Glomerella lagenarium (Colletotrichum lagenarium) / liquid culture (anthracnose); type: cell-based; settings: Colletotrichum orbiculare, compared to untreated control
Procedure: as §1, with “measured” for “determined”, “3-4” for “4-5”

[7] = test system: Fusarium culmorum; experiment: microbe, parasite or virus in culture; type: cell-based; settings: read-out: control of Fusarium culmorum
[8] = test system: Gaeumannomyces graminis; experiment: Gaeumannomyces graminis / liquid culture (take-all of cereals); type: cell-based; settings: compared to untreated control
Procedure: as §1, with “Mycelial fragments of” for “Conidia of”, “storage were” for “storage are”

| SMILES | inhibition of growth at 20 ppm [1] | melting point | inhibition of growth at 20 ppm [2] | pest or weed control at 200 ppm [3] | inhibition of growth at 20 ppm [4] | inhibition of growth at 200 ppm [5] | inhibition of growth at 200 ppm [6] | inhibition of growth at 200 ppm [7] | inhibition of growth at 20 ppm [8] |
| --- | --- | --- | --- | --- | --- | --- | --- | --- | --- |
| CC(Cc1cccc(F)c1)(CC(F)(F)F)NC(=O)c1cnc2c(F)cccc2c1 (stereo not drawn) [X.012, 8-fluoro-N-[3,3,3-trifluoro-1-[(3-fluorophenyl)methyl]-1-methyl-propyl]quinoline-3-carboxamide] | ≥ 80% | 149 to 151 °C | ≥ 80% | ≥ 80% | ≥ 80% |  |  |  |  |
| C[C@](Cc1ccccc1)(CC(F)(F)F)NC(=O)c1cnc2c(Cl)cccc2c1 [Compound F-19, N-[(1S)-1-benzyl-3,3,3-trifluoro-1-methyl-propyl]-8-chloro-quinoline-3-carboxamide] |  |  | ≥ 80% | ≥ 80% | ≥ 80% |  |  |  |  |
| C=C(Cl)C[C@@](C)(Cc1ccccc1)NC(=O)c1cnc2c(F)cccc2c1 [Compound F-36] |  |  |  |  |  | ≥ 80% | ≥ 80% | ≥ 80% |  |
| CC1(C[C@@](C)(Cc2ccccc2)NC(=O)c2cnc3c(F)cccc3c2)CC1 [Compound F-26, N-[(1S)-1-benzyl-1-methyl-2-(1-methylcyclopropyl)ethyl]-8-fluoro-quinoline-3-carboxamide] | ≥ 80% |  |  |  | ≥ 80% | ≥ 80% | ≥ 80% | ≥ 80% |  |
| CC(C)CC(C)(Cc1ccccc1)NC(=O)c1cnc2c(F)c(F)ccc2c1 (stereo not drawn) [X.008, N-(1-benzyl-1,3-dimethyl-butyl)-7,8-difluoro-quinoline-3-carboxamide] | ≥ 80% | 114 to 116 °C |  | ≥ 80% | ≥ 80% |  |  |  | ≥ 80% |
| CC(C)CC(C)(Cc1ccccc1)NC(=O)c1cnc2ccccc2c1 (stereo not drawn) [X.019, N-(1-benzyl-1,3-dimethyl-butyl)quinoline-3-carboxamide] | ≥ 80% | 121 to 123 °C |  | ≥ 80% |  |  |  |  | ≥ 80% |
| CC(C)CC(C)(Cc1ccccc1)NC(=O)c1cnc2c(Cl)cccc2c1 (stereo not drawn) [X.018, N-(1-benzyl-1,3-dimethyl-butyl)-8-chloro-quinoline-3-carboxamide] | ≥ 80% | 147 to 148 °C |  |  | ≥ 80% |  |  |  | ≥ 80% |
| Cc1cccc2cc(C(=O)N[C@@](C)(Cc3ccccc3)CC(F)(F)F)cnc12 [Compound F-17, N-[(1S)-1-benzyl-3,3,3-trifluoro-1-methyl-propyl]-8-methyl-quinoline-3-carboxamide] | ≥ 80% |  | ≥ 80% |  | ≥ 80% |  |  |  |  |
| Cc1cccc2cc(C(=O)NC(C)(Cc3ccccc3)CC(C)C)cnc12 (stereo not drawn) [X.017, N-(1-benzyl-1,3-dimethyl-butyl)-8-methyl-quinoline-3-carboxamide] | ≥ 80% | 132 to 133 °C |  | ≥ 80% | ≥ 80% |  |  |  | ≥ 80% |
| CC(Cc1ccccc1)(CC(F)(F)F)NC(=O)c1cnc2c(F)c(F)ccc2c1 (stereo not drawn) [X.007, N-(1-benzyl-3,3,3-trifluoro-1-methyl-propyl)-7,8-difluoro-quinoline-3-carboxamide] |  |  | ≥ 80% | ≥ 80% | ≥ 80% |  |  |  |  |
| C[C@](Cc1ccccc1)(CC(F)(F)F)NC(=O)c1cnc2c(F)c(F)ccc2c1 [Compound F-21, N-[(1S)-1-benzyl-3,3,3-trifluoro-1-methyl-propyl]-7,8-difluoro-quinoline-3-carboxamide] |  |  | ≥ 80% |  | ≥ 80% |  |  |  |  |
| CC(F)(F)C[C@](C)(Cc1ccccc1)NC(=O)c1cnc2c(F)cccc2c1 [Compound F-32, N-[(1S)-1-benzyl-3,3-difluoro-1-methyl-butyl]-8-fluoro-quinoline-3-carboxamide] |  |  | ≥ 80% | ≥ 80% | ≥ 80% |  |  |  |  |

— patent US11234437B2 (priority 2017, dated 2022)
